In one experiment the test system is photoreceptor cells. The experiment in a line: Photoreceptor survival in rd1 mice (retinitis pigmentosa model). The format is in vivo, mouse. As for the experimental part: The rd1 mouse model is a model for human RP and carried a loss-of-function mutation in the gene encoding for the β-subunit of the rod photoreceptor cGMP phosphodiesterase-6.2. This loss-of-function mutation led to an accumulation of cGMP, which caused photoreceptor cell death.
In these studies, intraocular injection of the 4Ig (2 μg/μl) peptide at P9 and P15 was performed and animals were sacrificed at P21 to examine cell survival. […] Injection of 4Ig increased outer nuclear layer (ONL) thickness to about 6 cells (FIG. 19). This measurement was the average thickness of the ONL.
As described above, cholesterol depletion removes lipid rafts. Specifically, mice were treated with daily […] (IP) injections of MβCD from P9 to P21.
To examine the effect of reducing cholesterol synthesis on cell survival, AY-9944 was examined in rd1 mice (FIGS. 20 and 21). Rd1 mice were treated using two intra-peritoneal injections of AY-9944, at P9 and P15 and sacrificed at P21.

The subject of experiment [1] is retinal explants (retinal ganglion cell neurites). The experiment in a line: Retinal explant neurite outgrowth on laminin or myelin. To be noted: AY-9944 1 μM, BM15.766 4 μM, 18 hrs. It counts as cell-based, chick. As to the method:
(§1) Retinal explants outgrowth assay. Poly-L-Lysine (PLL; SIGMA; 10 μg/ml) coated glass coverslips were treated with Laminin (10 μg/ml; Invitrogen) and RGMa proteins (5 μg) and incubated for 3 hrs at room temperature. PLL treated coverslips were coated with myelin overnight (6 μg/cm2), followed by coating with Laminin. Temporal retinal explants were cultured on either myelin or protein-coated surfaces in DMEM F-12 media (2% chick serum, 10% FBS) for 18 h. To disrupt rafts, explants were pre-treated with 10 mM MβCD for 12 min or 2 U/ml CO for 1 h at 37° C., washed, and cultured on protein coated coverslips. Explants were then fixed with 4% PFA and stained with Alexa488-fluor-phalloidin (1:50; Molecular Probes). Fiber length was quantified using Image Pro 5.0.
Specifically, retinal explants were prepared from E7 chick embryos, cultured on coverslips coated with on Laminin or myelin, and treated with control (DMSO) or AY-9944 (1 μM) or BM15.766 (4 μM), two inhibitors of cholesterol biosynthesis. After 18 hrs in culture, explants were fixed with 4% PFA and stained with Alexa488-Phalloidin. Neurites were measured using Cellsens software. Retinal explants were cultured on laminin (control) or myelin (the inhibitory compound of the CNS). On laminin, axon growth was normal compared to myelin because myelin inhibited outgrowth.

For experiment [2], the system named is temporal retinal explants (axonal outgrowth). The experiment in a line: Retinal explants outgrowth assay. The format is cell-based, chick. As for the experimental part: Poly-L-Lysine (SIGMA; 10 μg/ml) coated glass coverslips were treated with Laminin (Invitrogen; 10 μg/ml) and RGMa proteins (5 μg/ml) and incubated for 3 hours at room temperature. Temporal retinal explants were cultured on protein-coated surfaces for 18 hours. To disrupt the lipid rafts, explants were pretreated with 10 mM methyl-β-cyclodextrin (MβCD) for 12 minutes or 2 U/ml cholesterol oxidase (CO) for 1 hour at 37° C. Explants were then fixed with 4% paraformaldehyde (PFA) and stained with Alexa488-phalloidin. Fiber length was quantified using Image Pro 5.0. For immunolocalization, explants were treated with Cholera Toxin B-FITC (C1655; Sigma; 10 mg/mL) and patched, fixed and stained with Neogenin antibody. Retinal ganglion cells (RGCs) were electroporated with RGMa-His and cultured for 18 hours. The cells were fixed and stained with Neogenin and His-tag antibodies.
as §1
Statistical analysis of retinal outgrowth assays was performed using Student's two-tail t-test using Excel (Microsoft). Results were expressed as the mean±SEM (n=at least 3 independent experiments; 2 duplicates per independent experiment, >10 explants per duplicate).

In experiment [3] the test system is retinal ganglion cells (RGCs). Description: Retinal organotypic cultures (whole mounts), propidium iodide cell death. The format is cell-based. The following applies: perturbing lipid rafts. As to the method:
(A) HEK293 cells that stably express RGMa (FIG. 11) were transfected with empty plasmid (Ctrl) or Neogenin (Neo). Neogenin induced cell death (arrows) when compared to control. (B) Quantification of cell death in Neogenin-transfected cells that were incubated in BSA (Neo+Ctrl), 4Ig (1 μg/ml), N-Raft (1 μg/ml), Noggin (100 nM), or MβCD (10 mM). […] Data were average±SEM (n=3 independent experiments), *p<0.0001. (C) Representative images and (D) Quantification of cell death in chick E5 tecta electroporated with GFP- and a Neogenin-expression plasmid and then injected with N-RGMa50-99 (Ctrl; 1 μg/ml), 4Ig (1 μg/ml), or N-Raft (1 μg/ml) and subjected to TUNEL assay. […] Data were an average±SEM from 3 different tecta/conditions (*p<0.001). Bar, 100 μm. (E) Representative images and (F) Quantification of retinal whole mounts incubated for 4 days with control peptide (1 μg/ml), 4Ig (1 μg/ml), N-Raft (1 μg/ml), or MβCD (10 mM) and dead cells were stained with Propidium Iodide (PI). Images from 9 whole mounts per condition from 3 independent experiments were taken at the same intensities and the fluorescence measured using ImageJ. […] Bar, 500 μm. (G) Fluorescence micrographs of flat-mounted retinas depicting Fluorogold-labeled retinal ganglion cells (RGCs) in injured retinas at 14 days following axotomy. Control retinas (Ctrl) had few surviving RGCs. 4Ig, N-raft or MβCD increased cell survival. Bar, 200 μm. (H) Representations of the retinal areas selected in our analyses. […] Data were average±SEM (n=6 eyes), *p<0.01.
For this study, retinal organotypic cultures were used, in which axotomy of retinal ganglion cells (RGCs) deprived the cells of tropic factors and induced apoptosis. Cell death was detected using propidium iodide (PI) and all images were taken at the same intensity with the RGC-layer in focus. Cell death was gauged by measuring the relative PI intensity of whole mounts.

Experiment [4] relates to Neogenin association with lipid rafts. Description: Lipid raft fractionation of injected chick brain/tecta. It counts as in vivo. To be noted: injected into chick brain/optic tectum one day before fractionation. As to the method: Injected chick E8 tecta (4Ig, 2 mg/mL; N-raft, 1 mg/mL; methyl-β-cyclodextrin (10 mM)) or transfected cells (Neogenin and RGMa) were collected 24 hours later, lysed and placed at the bottom of a sucrose density gradient (0.9-0.8-0.75-0.7-0.6-0.5-0.4-0.2 M) and centrifuged at 38,000 rpm for 16 hours in SW 60 rotor (Beckman Instruments Inc.).
Proteins (4Ig, 2 mg/ml; N-Raft, 1 mg/mL; RGMaΔ, 5 mg/ml; methyl-β-cyclodextrin (10 mM)) were injected in chick E8 optic tectum and tecta were collected 24 hrs later. HEK cells were transfected with Neogenin and different RGMa constructs and collected 48 hrs later. For treatment with RGMaΔ, Neogenin transfected cells were treated with RGMaΔ (2 mg/ml) and BMP-2 (100 nM) and further incubated for 1 hr at 37° C. Tecta (3 tecta for each set of experiment) and/or cells were solubilized in chilled buffer (25 mM Tris-HCl, pH 7.4, 150 mM NaCl, 5 mM EDTA and protease inhibitor cocktail) and passed through G25 and G30 needles, respectively, and centrifuged at 800 g for 10 min at 4° C. Cold Triton X-100 was added to the post nuclear supernatant to a final concentration of 1% and incubated on ice for 1 hour. 2× volume of 2M sucrose was added and sample placed at the bottom of a sucrose density gradient (0.9-0.8-0.75-0.7-0.6-0.5-0.4-0.2 M) and centrifuged at 38,000 rpm for 16 hours in SW 60 rotor (Beckman Instruments Inc.). 400 μl fractions were collected from top (top numbered 1 and next eight fractions numbered consequently) and stored at −80° C.
As such, it was examined if overexpressing recombinant 4Ig and N-Raft competed with the endogenous 4Ig and N-Raft domains to displace Neogenin from the lipid raft fractions to the non-lipid raft fractions. Specifically, N-Raft, 4Ig-domain, or a control peptide, which was amino acid residues 50-99 of RGMa (also referred to herein as “N-RGMa^50-99”), was injected into the optic tectum at E8. The tecta were collected a day later for fractionation-analyses.

In the case of `Clc1ccccc1CNCC1CCC(CNCc2ccccc2Cl)CC1` (centres unmarked) [AY-9944], the “number of rods within the Outer Nuclear Layer (anti-Rhodopsin)” value with photoreceptor cells (injected at P9, P21) is recorded as “dramatic increase in the number of rods”. The photoreceptor survival entry with photoreceptor cells (two intra-peritoneal injections at P9 and P15, sacrificed at P21) is “promoted photoreceptor survival”. Also, in experiment [1], the outgrowth on laminin result is reported as “did not influence outgrowth on laminin” and the outgrowth on myelin entry is “restored outgrowth on myelin”.
Consider `O=C(O)c1ccc(CCN2CCN(C/C=C/c3ccc(Cl)cc3)CC2)cc1` [BM15.766], for which, in experiment [1], the outgrowth on laminin entry is listed as “did not influence outgrowth on laminin” and the outgrowth on myelin result is given as “restored outgrowth on myelin”.
For cholesterol oxidase [CO], the “axonal outgrowth on RGMa proteins after lipid raft disruption” value in experiment [2] (10 mM MβCD or 2 U/ml of CO) is on record as “restored to control values”. In experiment [3], the “enhancement of cell survival vs. control” value is given as “about 50%”.

B1: Noggin: BMP-chelator, Accession No. AAA83259 (SEQ ID NO:5) (protein, listed as Homo sapiens)
chain: MERCPSLGVTLYALVVVLGLRATPAGGQHYLHIRPAPSDNLPLVDLIEHPDPIFDPKEKDLNETLLRSLLGGHYDPGFMATSPPEDRPGGGGGAAGGAEDLAELDQLLRQRPSGAMPSEIKGLEFSEGLAQGKKQRLSKKLRRKLQMWLWSQTFCPVLYAWNDLGSRFWPRYVKVGSCFSKRSCSVPEGMVCKPSKSVHLTVLRWRCQRRGGQRCGWIPIQYPIISECKCSC
modifications: Noggin - Accession No. AAA83259
As for B1, the “Neogenin localization in membrane fractions” value in experiment [4] was “not present in the lipid rafts”. For the same molecule, in experiment [2] (in presence of Noggin), the “outgrowth in retinal explants (E8) exposed to N-RGMa, C-RGMa or RGMaΔ” value was “restored outgrowth”. The “axonal outgrowth, agent alone” value in experiment [2] (no RGMa protein) is reported as “unaffected”.
